{"source": "patent US10751297B2", "about": "“Composition and method for treating skin conditions” (priority 2017, dated 2020)", "origin": "cited, not measured here", "key": {"[1]": {"test_system": "acyclovir-resistant HSV strains"}, "HIV-1": {"test_system": "HIV-1", "settings": "in vitro"}, "[2]": {"test_system": "respiratory syncytial virus", "settings": "in vitro"}, "herpes simplex virus": {"test_system": "herpes simplex virus", "settings": "in vitro"}, "Friend virus": {"test_system": "Friend virus", "settings": "in vivo"}, "[3]": {"test_system": "early viral protein synthesis"}}, "data": [{"smiles": "CCCCCCCCCCCCCCCCCCCCCCO", "note": "[docosanol]", "values": [{"measurement": "effectiveness in acyclovir-resistant HSV strains", "setting": "[1]", "value": "effective"}, {"measurement": "concentration up to which not cytotoxic", "setting": "cells", "value": "up to 300 mM"}, {"measurement": "antiviral activity against HIV-1", "setting": "HIV-1", "value": "potent antiviral activity"}, {"measurement": "antiviral activity against respiratory syncytial virus", "setting": "[2]", "value": "potent antiviral activity"}, {"measurement": "antiviral activity against herpes simplex virus", "setting": "herpes simplex virus", "value": "potent antiviral activity"}, {"measurement": "antiviral activity against Friend virus", "setting": "Friend virus", "value": "potent antiviral activity"}, {"measurement": "inhibition of early viral protein synthesis", "setting": "[3]", "value": "more than 80%"}]}]}
